# Measurements from patent US20250387382A1, “METHODS OF TREATING ESSENTIAL TREMOR” (Praxis Precision Medicines, Inc., priority 2023, published 2025).
# Key:
# Type in all cases: in vivo, human
# [1] = system: participants with moderate to severe ET; assay: Phase 2 trial, double-blind part: safety/tolerability
# Protocol: This trial is a Phase 2 trial to evaluate the efficacy and safety/tolerability of titration of Compound 1 to 60 mg or 100 mg compared to placebo in participants with moderate to severe ET. Severity of ET in this study was defined by eligibility criteria on TETRAS-ADL, CGI-S, and TETRAS-PS items 6 and 7. This dose range finding trial is comprised of three parts. The first part was randomized, double-blinded (DB), and placebo-controlled, the second part was an optional extension that consisted of an Extension DB Lead-in Period followed by an Extension Open-label (OL) Period. Further, there was also a third part available for completers of the Day 99 visit, which third part was comprised of a blinded cross-over period (referred to as cross-over period) after re-randomization for 6 weeks, after which all completers would receive formula (I) in an open-label fashion. In part one of the trial, eligible participants were randomized to 1 of 2 dose levels of Compound 1 (60 mg or 100 mg) or to placebo. The primary objective of this trial was to evaluate the efficacy of Compound 1 compared to placebo after 56 days (end of randomized, DB, placebo-controlled part) of dosing in participants with ET with moderate to severe tremor utilizing modified ADL as the primary efficacy endpoint. Secondary and exploratory objectives include further efficacy evaluations, an evaluation of the safety and tolerability, and determination of plasma concentrations of formula (I) and its metabolites. The design of the Phase 2 trial is illustrated in FIG. 1.
# Throughout the Intervention Period (Day 1 to Day 56), participants who chose to stop dosing or were required to stop dosing entered the Safety Follow-up Period. All participants were asked to return to the clinic for the Safety Follow-up Visit 14 days after their last dose of study drug except for those that chose to enroll in the optional Extension part of the trial (see below).
# On Days 7, 21, 35, and 54 participants received a telephone call from site staff to ask about AEs and changes in concomitant medications.
# patients with ET = assay: Open-label extension of the Phase 2 trial (blinded six-week lead-in, week 14 assessment)
# Protocol: After the DB part of the trial was complete, participants were able to choose to enter the Extension part of the trial. Participants who chose to enter the Extension began receiving OL study drug for up to 12 months, or start of the cross-over period, after a 43-day Extension DB Lead-in Period, whichever was earlier. During this Extension DB Lead-in Period, participants who received placebo or 60 mg in the DB part of the trial titrated up to 100 mg in a DB fashion utilizing the same dose titration regimen as in the DB part of the trial. Participants who received 100 mg in the DB part of the trial continued to receive 100 mg in a blinded fashion until all participants were receiving Compound 1 100 mg QAM as of Day 99. Participants who were unable to tolerate fixed-dose titration to 100 mg during the Extension DB Lead-in Period were discontinued from the trial and asked to attend the Safety Follow-up/EOS-E Visit. After the Extension DB Lead-in Period, participants flexibly dosed with Compound 1 (20-100 mg) QAM at the discretion of the Investigator during the Extension OL Period until the start of the cross-over period. Participants who consented to participate in the separate LTSS were able to end participation in the current study after completing the End of Treatment Visit and join the LTSS at any point during the Extension OL Period.
# All participants who continued into the Extension part of the trial participated in a 43 day Extension DB Lead-in Period so all participants could be titrated to the 100-mg dose in a blinded fashion (Table 2) before receiving open-label, flexible doses of Compound 1 (20-100 mg) for up to 12 months (Days 100-459) during the Extension OL Period.
# Following completion of the initial 8 weeks double-blind treatment phase of the Phase 2 trial described in Example 1, eligible patients had the option to continue their access to Compound 1 in an open-label extension phase (OLE). Participants who continued to the open label extension (OLE) phase remained blinded for a six-week lead-in phase.
# In the Extension part of the trial, measures of efficacy include analysis of change from baseline to Days 70, 84, 99, 129, 159, 189, 279, 369, and 459 in modified ADL, CGI-S, TETRAS-ADL total score, TETRAS-PS total score, TETRAS UL score, TETRAS CUL score, and CGI-I and PGI-C scores at Days 70, 84, 99, 129, 159, 189, 279, 369, and 459.
# A total of 65 patients who completed the double-blinded portion of the Phase 2 trial described in Example 1 were eligible to participate in the OLE and completed the week 14 assessment. FIG. 21 is a bar graph showing change in mADL11 scores from baseline, by study week from week 8 to week 14. Patients who were eligible and continued on Compound 1 (n=39) experienced an additional mean improvement in mADL11 of 1.7 points from 3.09 at Weck 8 (95% CI: 0.98, 5.2) to 4.81 (95% CI: 2.38, 7.23) after 14 weeks of treatment. Patients who switched from placebo to Compound 1 treatment during the OLE 6-week lead-in (n=26) experienced mean improvement in mADL11 of 3.15 points from 1.21 at Week 8 (95% CI: −1.04, 3.46) to 4.36 (95% CI: 1.68, 7.05.
# [2] = Phase 1 trial: effect of a high-fat, high-calorie meal on pharmacokinetics; conditions: 120 mg dose, steady state, healthy adult participants
# Protocol: The effect of a high-fat, high-calorie meal on the pharmacokinetics of Compound I was evaluated in healthy participants who had previously received Compound 1 under fasted conditions in a Phase 1 trial. The effect of a high-fat, high-calorie meal on the PK of Compound 1 was evaluated at the 120 mg dose level after healthy adult participants had titrated to reach steady-state exposure. Following administration of 120 mg dose in the fed state or fasted state, the maximum plasma drug concentration (Cmax) and AUC, values were similar. Based on this analysis, Compound 1 may be administered without regard to food.
# [3] = system: healthy participants and patients with ET; assay: Safety across the clinical development program
# [4] = patients who continued on Compound 1, n=39
# [5] = patients who switched from placebo to Compound 1, n=26
smiles,measurement,setting,value
"CC(C)(C)NC(=O)CN1CCC(CNC(=O)c2cc(F)cc(Cl)c2)CC1 [Compound 1, N-((1-(2-(tert-butylamino)-2-oxoethyl)piperidin-4-yl)methyl)-3-chloro-5-fluorobenzamide]","Safety profile, 60 mg vs 100 mg groups",[1]; in vivo,no significant difference in the safety profile
same,Severity of the majority of TEAEs,[1]; in vivo,mild-moderate
same,Proportion of subjects who discontinued,[1]; placebo 11%,17%
same,Tolerability,"[1]; titration to 60 mg or 100 mg, 56 days",well tolerated
same,Additional mean improvement in mADL11 from Week 8 to week 14,patients with ET; [4],1.7 points
same,mADL11 mean improvement from baseline after 14 weeks,patients with ET; [4],4.81 points
same,mADL11 mean improvement from baseline at Week 8,patients with ET; [4],3.09 points
same,Mean improvement in mADL11 from Week 8 during OLE 6-week lead-in,patients with ET; [5],3.15 points
same,mADL11 mean improvement from baseline after OLE 6-week lead-in,patients with ET; [5],4.36 points
same,Overall safety results,patients with ET; through 14 weeks of treatment,no change to the overall safety results
same,"AUC, fed state vs fasted state",[2],similar
same,"Cmax, fed state vs fasted state",[2],similar
same,Deaths or SAEs considered related to study drug,"[3]; human, in vivo",No deaths or serious adverse events (SAEs)
same,Suicide attempts or pregnancies reported,"[3]; human, in vivo",no suicide attempts or pregnancies
same,Safety profile,"[3]; modified release formulation, titration, 5 to 120 mg for up to 129 days",favorable safety profile
same,Tolerability,"[3]; up to 129-days of daily administration, 5 to 120 mg, titration schedule",generally well tolerated
